{"source": "patent US11543404B2", "about": "“Nerve cell device and method for evaluating neural activity” (Stem Cell & Device Laboratory, Inc., priority 2017, dated 2023)", "key": {"[1]": {"tested_on": "253G1 hiPS cell-derived neurons", "assay": "MEA measurement of drug response (number of spikes) of 253G1 hiPS cell-derived neurons", "type": "cell-based, human", "settings": "4-AP final concentration 100 μM", "procedure": "iPS cell-derived neurons (253G1 hiPS cell-derived neuron or XCL-1 NEURONS (XCell Science, catalog number XN-001-1V)) were seeded on the oriented PLGA fiber sheet as a cell scaffold at 13×10^5 cells/cm^2. 253G1 hiPS cell-derived neurons were cultured in N2B27 medium with or without 20% ACM, and the XCL-1 NEURONS are cultured in BrainPhys (registered trademark) Neuronal Medium (05792, STEMCELL TECHNOLOGIES) with or without 20% ACM in an incubator at 5% CO2 and 37° C. for 4 or 6 weeks. The fiber sheet was placed on an MEA probe (MED64 system, Alpha MED Scientific Inc.), and made the cells contact with the electrodes of MEA probe to measure neural activity (spikes). As a control, neurons were similarly seeded directly on a probe (electrodes) based on a conventional method, and cultured in an incubator at 5% CO2 and 37° C. for 4 or 6 weeks. The obtained results were compared with those given by a conventional method (direct seeding to a probe). A larger number of spikes were detected in 253G1 hiPS cell-derived neurons on the fiber sheet at 4-week culture (FIG. 7a). […] In the measurement system, 4-aminopyridine (4-AP), known to have a function of inhibiting various potassium channels in neurons and maintaining neuronal action potential, was added to the neurons cultured for 4 weeks at a final concentration of 100 μM, and then the spikes were measured. As a result, the number of spikes was increased both in the control group and in the fiber sheet group by the addition of 4-aminopyridine, and appropriate drug response was also confirmed (FIG. 7a)."}, "[2]": {"tested_on": "iPS cell-derived neurons XCL-1 NEURONS", "assay": "MEA measurement of drug response (spikes, bursts, synchronous bursts) of XCL-1 NEURONS on oriented PLGA fiber sheet", "type": "cell-based, human", "settings": "4-AP final concentration 100 μM", "procedure": "iPS cell-derived neurons (253G1 hiPS cell-derived neuron or XCL-1 NEURONS (XCell Science, catalog number XN-001-1V)) were seeded on the oriented PLGA fiber sheet as a cell scaffold at 13×10^5 cells/cm^2. 253G1 hiPS cell-derived neurons were cultured in N2B27 medium with or without 20% ACM, and the XCL-1 NEURONS are cultured in BrainPhys (registered trademark) Neuronal Medium (05792, STEMCELL TECHNOLOGIES) with or without 20% ACM in an incubator at 5% CO2 and 37° C. for 4 or 6 weeks. The fiber sheet was placed on an MEA probe (MED64 system, Alpha MED Scientific Inc.), and made the cells contact with the electrodes of MEA probe to measure neural activity (spikes). As a control, neurons were similarly seeded directly on a probe (electrodes) based on a conventional method, and cultured in an incubator at 5% CO2 and 37° C. for 4 or 6 weeks. The obtained results were compared with those given by a conventional method (direct seeding to a probe). A larger number of spikes were detected in 253G1 hiPS cell-derived neurons on the fiber sheet at 4-week culture (FIG. 7a). […] In the measurement system, 4-aminopyridine (4-AP), known to have a function of inhibiting various potassium channels in neurons and maintaining neuronal action potential, was added to the neurons cultured for 4 weeks at a final concentration of 100 μM, and then the spikes were measured. As a result, the number of spikes was increased both in the control group and in the fiber sheet group by the addition of 4-aminopyridine, and appropriate drug response was also confirmed (FIG. 7a). […] The cells were cultured in BrainPhys (registered trademark) Neuronal Medium (05792, STEMCELL TECHNOLOGIES) containing 20% ACM in an incubator at 5% CO2 and 37° C. for 2, 4, and 6 weeks. The obtained cell sheet (nerve cell device) was placed on an MEA probe (MED64 system, Alpha MED Scientific Inc.) and made the cells contact with the electrodes of MEA probe to measure neural activity (spikes and bursts). In the measurement system, 4-aminopyridine (4-AP), known to maintain a neural action potential was added at a final concentration of 100 μM to examine the drug response of neurons. MED 64 Burstscope (Alpha MED Scientific Inc.) was used for analyzing neural activity. About the cell sheet obtained by culturing for 4 weeks, the result of analyzing the number of spikes is shown in FIG. 8a, and the result of analyzing the number of synchronous bursts is shown in FIG. 8b. […] Furthermore, the result of analyzing neural activity by raster plots for a cell sheet obtained by culturing for 6 weeks is shown in FIG. 8c."}, "[3]": {"settings": "seeded at 24×10^5 cells/cm^2 on oriented PLGA fiber sheet, 20% ACM, cultured 4 weeks"}}, "data": [{"molecule": "Nc1ccncc1", "note": "[4-aminopyridine]", "values": [{"measurement": "increase in the number of spikes", "setting": "[1]; control group cultured directly on the MEA probe, 4 weeks", "value": 156, "unit": "%"}, {"measurement": "increase in the number of spikes", "setting": "[1]; fiber sheet group cultured in medium with 20% ACM, 4 weeks", "value": 194, "unit": "%"}, {"measurement": "increase in the number of spikes", "setting": "[1]; neurons on oriented PLGA fiber sheet (fiber sheet group), cultured 4 weeks", "value": 167, "unit": "%"}, {"measurement": "increase in the number of spikes", "setting": "[2]; [3]", "value": 499, "unit": "%"}, {"measurement": "increase in the number of synchronous bursts", "setting": "[2]; [3]", "value": 375, "unit": "%"}, {"measurement": "number of spikes and synchronous bursts (raster plots)", "setting": "[2]; seeded at 24×10^5 cells/cm^2 on oriented PLGA fiber sheet, 20% ACM, cultured 6 weeks", "value": "remarkable increase"}, {"measurement": "increase in the number of bursts", "setting": "[2]; seeded on fiber sheet at 12×10^5 cells/cm^2, cultured 6 weeks in medium with ACM", "value": 2.6, "unit": "fold"}]}]}
